Measured values reported in ChEMBL document CHEMBL2176940, “Discovery of ligands for ADP-ribosyltransferases via docking-based virtual screening” (J Med Chem, 2012).

Target: T1, Protein mono-ADP-ribosyltransferase PARP15 (Homo sapiens) (UniProt Q460N3)
T1 sequence (whole entry): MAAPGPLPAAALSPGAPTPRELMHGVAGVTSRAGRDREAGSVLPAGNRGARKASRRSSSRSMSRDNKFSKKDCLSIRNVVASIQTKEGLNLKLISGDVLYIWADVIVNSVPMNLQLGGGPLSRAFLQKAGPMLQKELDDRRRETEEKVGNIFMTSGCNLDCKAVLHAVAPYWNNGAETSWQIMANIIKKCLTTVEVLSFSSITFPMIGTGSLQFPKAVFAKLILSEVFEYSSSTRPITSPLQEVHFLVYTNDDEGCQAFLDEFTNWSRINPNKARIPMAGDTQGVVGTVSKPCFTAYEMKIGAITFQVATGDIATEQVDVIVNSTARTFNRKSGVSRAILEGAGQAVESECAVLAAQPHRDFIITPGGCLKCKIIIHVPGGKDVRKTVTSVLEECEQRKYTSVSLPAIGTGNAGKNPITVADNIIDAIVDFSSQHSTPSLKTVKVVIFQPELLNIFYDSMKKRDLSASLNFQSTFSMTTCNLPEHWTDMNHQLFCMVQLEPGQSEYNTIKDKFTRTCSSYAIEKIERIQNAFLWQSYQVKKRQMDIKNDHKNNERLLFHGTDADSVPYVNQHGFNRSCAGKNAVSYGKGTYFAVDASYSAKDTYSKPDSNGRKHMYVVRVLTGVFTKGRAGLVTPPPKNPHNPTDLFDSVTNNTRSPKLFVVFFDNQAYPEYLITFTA
Description: Binding affinity at human recombinant ARTD7 expressed in Escherichia coli BL21 (DE3) R3 pRARE cells assessed as thermal stability shift by differential scanning fluorimetry

Question: For `NC(=O)c1cccc(NC(=O)/C=C\C(=O)O)c1`, which ΔTm is on record?
Answer: 0.8 °C
